Measurements published in patent US8178545B2, “Dual small molecule inhibitors of cancer and angiogenesis” (University of Virginia Patent Foundation, priority 2004, dated 2012).
Entries after “also recorded” stand apart in the source; their conditions may differ. Read-outs that look alike come from different tables or passages of the source.

Legend:
[1] = tested on: COLO205; assay: NCI anticancer drug screen, proliferation (GI50); format: cell-based; conditions: Homo sapiens, COLO 205
Method: (§1) SC-2-71 was evaluated against human cultured cell lines in the NCI Anticancer Drug Development Program. […] This includes potent inhibition of colon cancer cells from primary tumors, distal metastasis and ascites fluid.

[2] = tested on: HCC-2998; assay: NCI anticancer drug screen, proliferation (GI50); format: cell-based; conditions: Homo sapiens
Method: as §1

[3] = tested on: HCT-116; assay: NCI anticancer drug screen, proliferation (GI50); format: cell-based; conditions: Homo sapiens, grade III tumor cells (HCT116)
Method: as §1

[4] = tested on: HCT-15; assay: NCI anticancer drug screen, proliferation (GI50); format: cell-based; conditions: Homo sapiens
Method: as §1

[5] = tested on: HT29; assay: NCI anticancer drug screen, proliferation (GI50); format: cell-based; conditions: Homo sapiens, HT-29
Method: as §1

[6] = tested on: KM12; assay: NCI anticancer drug screen, proliferation (GI50); format: cell-based; conditions: Homo sapiens
Method: as §1

[7] = tested on: SW-620; assay: NCI anticancer drug screen, proliferation (GI50); format: cell-based; conditions: Homo sapiens
Method: as §1

[8] = tested on: MDA-MB-435 cells; assay: Anti-proliferative activity, SRB assay; format: cell-based; conditions: Homo sapiens
[9] = tested on: NCI/ADR cells (Pgp expressing); assay: Proliferation of Pgp expressing cell line; format: cell-based; conditions: for IC50: Homo sapiens, NCI/ADR-RES; for Rr value: relative resistance, NCI/ADR vs MDA-MB-435
Description: Relative resistance (Rr) values can be calculated by dividing the IC50 of the […] cell line.

[10] = tested on: tubulin; assay: Microtubule disruption / tubulin depolymerization; format: cell-based; conditions: for Microtubule activity (% depolymerization): at 5 μM
[11] = tested on: Human Microvessel Endothelial Cells (HMEC); assay: Endothelial cell proliferation; format: cell-based; conditions: triplicate, ± SEM
Description: (§2) Without wishing to be bound by any particular theory, strategies and experiments are described herein pertaining to developing an anti-cancer strategy of simultaneously inhibiting endothelial and cancer cells. […] The taxanes, taxol and docetaxel, vinblastine, vincristine and 2-methoxyestradiol all have anti-angiogenic activity in vivo. […] SC-2-71's ability to inhibit angiogenesis in an in vivo model was then examined.

[12] = tested on: Human Umbilical Vein Endothelial Cells (HUVEC); assay: Endothelial cell proliferation; format: cell-based; conditions: triplicate, ± SEM
Description: as §2

[13] = tested on: NCI 60 human cell lines; assay: NCI 60 human cell lines (GI50); format: cell-based; conditions: several cell lines of the NCI 60 panel
Description: FIG. 1 Depicts the effects of SC-2-71 against the NCI 60 human cell lines (GI50).
Several interesting findings are evident.

[14] = tested on: blood vessels on the chick chorioallantoic membrane; assay: Chick chorioallantoic membrane (CAM) model of blood vessel growth; format: in vivo; conditions: 100 μM, compared to control
Method: SC-2-71 (100 μM) inhibited a translational model of blood vessel growth in vivo (CAM, FIG. 8, panel B and C) as compared to control (FIG. 8, panel A). This strongly establishes that SC-2-71 has anti-angiogenic activity. Further it raises the question as to the expression level of βIII tubulin in HMECs.

[15] = tested on: A-10 cells; assay: Cell based phenotypic screen of microtubule disruption
Description: FIG. 2 Depicts the microtubule depolymerizing effects of SC-2-71 in A-10 cells.
The microtubule disrupting effects of SC-2-71 were detected in a cell based phenotypic screen (FIG. 2). […] This effect is consistent with the effects observed from other microtubule depolymerizers. […] This is also a hallmark of microtubule disrupting compounds. Depolymerization of interphase microtubules is a classic response of cells to relatively high concentrations of microtubule disruptors such as the vinca alkaloids.

[16] = tested on: HeLa cells; assay: Mitotic spindle formation; format: cell-based; conditions: low micromolar concentrations
[17] = tested on: MDA-MB-435 cells; assay: Cell cycle progression by flow cytometry; format: cell-based; conditions: 3 μM for 18 h, Krishan's reagent
Method: The effects of SC-2-71 on cell cycle progression were determined using flow cytometry techniques. MDA-MB-435 cells were treated with 3 μM SC-2-71 for 18 h, stained with Krishan's reagent and DNA content analyzed.

[18] = tested on: NCI/ADR cells (Pgp expressing); conditions: NCI/ADR (Pgp expressing) and MDA-MB-435 (Pgp deficient); Tinley et al. 2003; cited from earlier work
[19] = tested on: HT29; conditions: NCI data; cited from earlier work
[20] = tested on: COLO205; conditions: NCI data; cited from earlier work
[21] = tested on: HCC-2998; conditions: NCI data; cited from earlier work
[22] = tested on: HCT-116; conditions: NCI data; cited from earlier work
[23] = tested on: HCT-15; conditions: NCI data; cited from earlier work
[24] = tested on: KM12; conditions: NCI data; cited from earlier work
[25] = tested on: SW-620; conditions: NCI data; cited from earlier work

## O=C1NC(c2ccc(-c3ccccc3)cc2)Nc2ccccc21 (stereo not drawn) [SC-2-71]
[1]
  GI50: 0.9 µM
[2]; HCC 2998, colon HCC2998, read-out: lowest GI50
  GI50: 0.068 µM
[2]; HCC-2998, read-out: GI50
  GI50: 0.068 µM
[3]
  GI50: 0.5 µM
[4]
  GI50: 0.4 µM
[5]
  GI50: 1 µM
[6]
  GI50: 2 µM
[7]
  GI50: 4 µM
[8]
  IC50: 0.61 ± 0.1 µM
[9]
  IC50: 1.8 ± 0.11 µM
  Rr value: 2.95
[9]; inferred from Rr values
  transport by Pgp: poor substrate for transport by Pgp
[10]
  Microtubule activity (% depolymerization): 50%
[11]
  IC50: 20 µM
[12]; Homo sapiens, HUVEC
  IC50: 1.6 µM
[12]
  IC50: 1.66 ± 0.5 µM
[13]
  GI50: > 100 µM
[14]
  blood vessel growth (CAM): inhibited
[15]
  micronucleation: extensive micronucleation
[15]; interphase microtubule network
  effect on cellular microtubules: concentration dependent loss of cellular microtubules
[16]
  mitotic spindles and mitotic accumulation: formation of abnormal mitotic spindles and mitotic accumulation
[17]
  cell cycle progression (DNA content): distinct mitotic accumulation

## O=C(c1ccccc1)c1ccc(C2NC(=O)c3ccccc3N2)cc1Cl (stereo not drawn) [SC-5-87]
[8]
  IC50: 0.26 ± 0.02 µM
[9]
  IC50: 0.76 ± 0.01 µM
  Rr value: 2.9
[10]
  Microtubule activity (% depolymerization): 90% at 5 μM

## Cc1ccccc1-c1ccc(C2NC(=O)c3ccccc3N2)cc1 (stereo not drawn) [SC-5-121]
[8]
  IC50: 0.6 ± 0.1 µM
[9]
  IC50: 0.88 ± 0.03 µM
  Rr value: 1.2
[10]
  Microtubule activity (% depolymerization): 90% at 5 μM

## O=C(c1ccccc1)c1ccc(C2NC(=O)c3ccccc3N2)cc1 (stereo not drawn) [SC-4-283]
[8]
  IC50: 0.9 ± 0.3 µM
[10]
  inhibition of tubulin polymerization: improved inhibitory activity in relation to SC-2-71; also recorded: potent inhibitor of tubulin polymerization
  Microtubule activity (% depolymerization): 50% at 5 μM

## CC(=O)O[C@H]1C(=O)[C@@]2(C)[C@H]([C@H](OC(=O)c3ccccc3)[C@]3(O)C[C@H](OC(=O)[C@H](O)[C@@H](NC(=O)c4ccccc4)c4ccccc4)C(C)=C1C3(C)C)[C@]1(OC(C)=O)CO[C@@H]1C[C@@H]2O [taxol]
[18]
  Rr value: 827

## O=c1[nH]cc(F)c(=O)[nH]1 [Compound 5FU, 5-Fluorouracil]
[19]
  GI50: 6.7 µM
[20]
  GI50: 7.2 µM
[21]
  GI50: 1.4 µM
[22]
  GI50: 4 µM
[23]
  GI50: 5.8 µM
[24]
  GI50: 11.1 µM
[25]
  GI50: 26.2 µM

## CC[C@]1(O)C[C@H]2CN(CCc3c([nH]c4ccccc34)[C@@](C(=O)OC)(c3cc4c(cc3OC)N(C=O)[C@H]3[C@@](O)(C(=O)OC)[C@H](OC(C)=O)[C@]5(CC)C=CCN6CC[C@]43[C@@H]65)C2)C1 [Vincristine]
[19]
  GI50: 0.11 µM
[20]
  GI50: 0.12 µM
[21]
  GI50: 0.11 µM
[22]
  GI50: 0.12 µM
[23]
  GI50: 0.14 µM
[24]
  GI50: 0.12 µM
[25]
  GI50: 0.11 µM
